Columns and labels:
Type in all cases: biochemical
[1] = biological target: T1, Epac2^fl (Mus musculus, UniProt Q9EQZ6); experiment: Epac activation assay, full length Epac2; parameters: made in house
T1 sequence (Q9EQZ6 1-993 isoform Q9EQZ6-3): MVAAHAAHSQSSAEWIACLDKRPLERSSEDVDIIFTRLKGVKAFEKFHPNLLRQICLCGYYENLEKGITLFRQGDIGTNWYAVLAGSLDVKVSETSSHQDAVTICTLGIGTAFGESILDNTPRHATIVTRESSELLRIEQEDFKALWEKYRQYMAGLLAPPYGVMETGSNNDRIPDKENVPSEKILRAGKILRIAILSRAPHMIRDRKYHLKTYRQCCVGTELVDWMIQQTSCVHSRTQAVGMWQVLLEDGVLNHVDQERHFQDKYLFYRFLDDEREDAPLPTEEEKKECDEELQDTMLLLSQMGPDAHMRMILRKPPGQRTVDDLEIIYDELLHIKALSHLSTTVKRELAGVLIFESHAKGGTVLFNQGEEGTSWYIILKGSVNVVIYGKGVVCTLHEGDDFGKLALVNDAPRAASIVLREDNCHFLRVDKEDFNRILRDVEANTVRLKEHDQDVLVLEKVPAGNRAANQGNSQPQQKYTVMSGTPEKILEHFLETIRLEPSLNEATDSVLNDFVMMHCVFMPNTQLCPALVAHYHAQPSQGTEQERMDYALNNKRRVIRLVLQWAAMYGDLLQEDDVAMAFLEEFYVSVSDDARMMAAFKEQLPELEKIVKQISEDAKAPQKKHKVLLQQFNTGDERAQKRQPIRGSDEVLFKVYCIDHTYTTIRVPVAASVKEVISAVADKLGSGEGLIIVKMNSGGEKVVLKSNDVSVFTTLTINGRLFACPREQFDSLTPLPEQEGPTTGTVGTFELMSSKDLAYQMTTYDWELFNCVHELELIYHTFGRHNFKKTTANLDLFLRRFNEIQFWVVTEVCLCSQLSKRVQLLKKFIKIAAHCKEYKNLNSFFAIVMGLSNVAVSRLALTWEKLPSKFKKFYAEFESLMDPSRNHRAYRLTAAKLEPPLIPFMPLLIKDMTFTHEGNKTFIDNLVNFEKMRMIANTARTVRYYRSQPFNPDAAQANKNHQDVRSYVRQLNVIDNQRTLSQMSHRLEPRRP
Experimental: Murine Epac2 was used as all previous structural studies were performed with it.
The activity of Epac was determined by a fluorescence assay. […] The fluorescence intensity of Rap1B•mGDP is approximately twice that of free mGDP, and thus, nucleotide exchange can be observed as a decay in fluorescence upon the addition of excess unlabeled GDP.

[2] = biological target: T2, PKA-Iα (Homo sapiens, UniProt P10644); experiment: PKA activity assay (coupled spectrophotometric, Kemptide), PKA-Iα; details: PKAIα
T2 construct: made in house
Experimental: (§1) The recombinant human PKA catalytic subunit (Cα1) and the four human PKA regulatory subunits (RIα, RIβ, RIIα, RIIβ) were expressed, purified, and characterized as described. […] PKA holoenzymes were formed by mixing the R- and C-subunit at a molar ratio of 1.2:1 and extensive dialysis against 20 mM MOPS (pH 7.0), 150 mM NaCl, 2.5 mM β-mercaptoethanol, supplemented with 1 mM ATP and 10 mM MgCl2 for PKA-I at 4°C overnight. PKA holoenzymes were used at about 20 nM for the activation assay. The apparent activation constants (Kact) were determined by fitting the concentration-dependent activity to a sigmoid dose-response model.

[3] = biological target: T3, PKA-IIβ (Homo sapiens, UniProt P31323); experiment: PKA activity assay, PKA-IIβ; details: PKAIIβ
T3 construct: made in house
Experimental: as §1

T2 sequence (P10644 whole entry): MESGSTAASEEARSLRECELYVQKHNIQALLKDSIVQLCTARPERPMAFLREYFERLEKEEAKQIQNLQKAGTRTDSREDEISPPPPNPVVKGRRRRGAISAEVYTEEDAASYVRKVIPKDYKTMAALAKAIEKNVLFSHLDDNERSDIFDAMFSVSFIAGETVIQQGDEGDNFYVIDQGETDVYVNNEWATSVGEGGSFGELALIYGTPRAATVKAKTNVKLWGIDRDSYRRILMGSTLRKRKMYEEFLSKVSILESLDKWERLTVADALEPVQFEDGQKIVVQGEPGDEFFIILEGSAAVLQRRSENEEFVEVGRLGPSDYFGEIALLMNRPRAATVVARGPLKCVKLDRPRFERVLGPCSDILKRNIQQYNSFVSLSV
T3 sequence (P31323 whole entry): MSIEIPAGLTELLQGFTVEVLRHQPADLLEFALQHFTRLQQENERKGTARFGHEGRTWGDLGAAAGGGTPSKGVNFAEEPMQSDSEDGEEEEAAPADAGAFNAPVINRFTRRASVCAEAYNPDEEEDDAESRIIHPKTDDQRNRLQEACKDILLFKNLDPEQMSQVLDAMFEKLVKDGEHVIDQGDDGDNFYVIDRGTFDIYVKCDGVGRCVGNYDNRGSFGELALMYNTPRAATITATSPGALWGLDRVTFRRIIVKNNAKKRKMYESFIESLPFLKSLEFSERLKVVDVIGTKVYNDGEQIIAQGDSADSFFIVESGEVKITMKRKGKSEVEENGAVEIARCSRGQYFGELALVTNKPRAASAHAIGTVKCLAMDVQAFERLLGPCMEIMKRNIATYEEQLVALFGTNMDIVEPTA

## Cc1ccc(CSc2nc3c(N)ncnc3n2[C@@H]2O[C@@H]3CO[P@](O)(=S)O[C@H]3[C@H]2O)cc1 [S-230, Sp-8-pMeBnT-cAMPS]
[1]; 0.2 μM compound
  kobs: 2.5e-05 s⁻¹
[1]; 0.3 μM compound
  kobs: 2.9e-05 s⁻¹
[1]; 0.4 μM compound
  kobs: 3.1e-05 s⁻¹
[1]; 0.5 μM compound
  kobs: 3.3e-05 s⁻¹
[1]; 0.6 μM compound
  kobs: 3.6e-05 s⁻¹
[1]; 0.7 μM compound
  kobs: 4e-05 s⁻¹
[1]; 0.8 μM compound
  kobs: 4.1e-05 s⁻¹
[1]; 1 μM compound
  kobs: 4.7e-05 s⁻¹
[1]; 2 μM compound
  kobs: 8.9e-05 s⁻¹
[1]; 3 μM compound
  kobs: 0.000128 s⁻¹
[1]; 4 μM compound
  kobs: 0.000139 s⁻¹
[1]; 5 μM compound
  kobs: 0.000145 s⁻¹
[1]; 6 μM compound
  kobs: 0.000194 s⁻¹
[1]; 7 μM compound
  kobs: 0.000209 s⁻¹
[1]; 8 μM compound
  kobs: 0.000213 s⁻¹
[1]; 10 μM compound
  kobs: 0.000238 s⁻¹
[1]; 20 μM compound
  kobs: 0.000358 s⁻¹
[1]; 30 μM compound
  kobs: 0.000429 s⁻¹
[1]; 40 μM compound
  kobs: 0.000467 s⁻¹
[1]; 50 μM compound
  kobs: 0.000491 s⁻¹
[1]; 60 μM compound
  kobs: 0.000519 s⁻¹
[1]; 70 μM compound
  kobs: 0.00055 s⁻¹
[1]; 80 μM compound
  kobs: 0.000558 s⁻¹
[1]; 100 μM compound
  kobs: 0.000582 s⁻¹
[1]; 200 μM compound
  kobs: 0.000643 s⁻¹
[1]; 400 μM compound
  kobs: 0.00061 s⁻¹
[1]; 600 μM compound
  kobs: 0.000556 s⁻¹
[1]; 800 μM compound
  kobs: 0.000527 s⁻¹
[2]; concentration 1 μM
  A (PKA activity): 2.9904 U/mg
[2]; concentration 1.00E+01 μM
  A (PKA activity): 1.9936 U/mg
[2]; concentration 1.00E-01 μM
  A (PKA activity): 3.8864 U/mg
[2]; concentration 1.00E-02 μM
  A (PKA activity): 2.632 U/mg
[2]; concentration 1.00E-03 μM
  A (PKA activity): 3.2928 U/mg
[2]; concentration 1.00E-05 μM
  A (PKA activity): 2.7664 U/mg
[2]; concentration 5.00E+02 μM
  A (PKA activity): 2.9232 U/mg
[3]; concentration 1 μM
  A (PKA activity): 2.854 U/mg
[3]; concentration 1.00E+01 μM
  A (PKA activity): 3.182 U/mg
[3]; concentration 1.00E-01 μM
  A (PKA activity): 1.472 U/mg
[3]; concentration 1.00E-02 μM
  A (PKA activity): 1.965 U/mg
[3]; concentration 1.00E-03 μM
  A (PKA activity): 1.941 U/mg
[3]; concentration 1.00E-05 μM
  A (PKA activity): 2.019 U/mg
[3]; concentration 5.00E+01 μM
  A (PKA activity): 6.801 U/mg
[3]; concentration 5.00E+02 μM
  A (PKA activity): 9.038 U/mg

## Nc1ncnc2c1ncn2[C@@H]1O[C@@H]2COP(=O)(O)O[C@H]2[C@H]1O [cAMP, reference compound]
[1]; 0.2 μM compound
  kobs: 1.9e-05 s⁻¹
[1]; 0.3 μM compound
  kobs: 2e-05 s⁻¹
[1]; 0.4 μM compound
  kobs: 2.1e-05 s⁻¹
[1]; 0.5 μM compound
  kobs: 2.1e-05 s⁻¹
[1]; 0.6 μM compound
  kobs: 2.5e-05 s⁻¹
[1]; 0.7 μM compound
  kobs: 2.36e-05 s⁻¹
[1]; 0.8 μM compound
  kobs: 2.47e-05 s⁻¹
[1]; 1 μM compound
  kobs: 2.84e-05 s⁻¹
[1]; 2 μM compound
  kobs: 3.47e-05 s⁻¹
[1]; 3 μM compound
  kobs: 4.1e-05 s⁻¹
[1]; 4 μM compound
  kobs: 4.71e-05 s⁻¹
[1]; 5 μM compound
  kobs: 5.23e-05 s⁻¹
[1]; 6 μM compound
  kobs: 5.05e-05 s⁻¹
[1]; 7 μM compound
  kobs: 5.49e-05 s⁻¹
[1]; 8 μM compound
  kobs: 6.35e-05 s⁻¹
[1]; 10 μM compound
  kobs: 7.22e-05 s⁻¹
[1]; 20 μM compound
  kobs: 0.000116 s⁻¹
[1]; 30 μM compound
  kobs: 0.000142 s⁻¹
[1]; 40 μM compound
  kobs: 0.000159 s⁻¹
[1]; 50 μM compound
  kobs: 0.000167 s⁻¹
[1]; 60 μM compound
  kobs: 0.000192 s⁻¹
[1]; 70 μM compound
  kobs: 0.000198 s⁻¹
[1]; 80 μM compound
  kobs: 0.000203 s⁻¹
[1]; 100 μM compound
  kobs: 0.000207 s⁻¹
[1]; 200 μM compound
  kobs: 0.000219 s⁻¹
[1]; 400 μM compound
  kobs: 0.000212 s⁻¹
[1]; 600 μM compound
  kobs: 0.000207 s⁻¹
[1]; 800 μM compound
  kobs: 0.000224 s⁻¹
[2]; concentration 1 μM
  A (PKA activity): 2.37E+01 U/mg
[2]; concentration 1.00E+01 μM
  A (PKA activity): 2.34E+01 U/mg
[2]; concentration 1.00E+02 μM
  A (PKA activity): 2.51E+01 U/mg
[2]; concentration 1.00E-01 μM
  A (PKA activity): 1.43E+01 U/mg
[2]; concentration 1.00E-02 μM
  A (PKA activity): 4.4268 U/mg
[2]; concentration 1.00E-03 μM
  A (PKA activity): 1.4399 U/mg
[2]; concentration 1.00E-05 μM
  A (PKA activity): 2.9393 U/mg
[2]; concentration 2.50E-01 μM
  A (PKA activity): 1.93E+01 U/mg
[2]; concentration 2.50E-02 μM
  A (PKA activity): 7.9492 U/mg
[2]; concentration 5.00E-02 μM
  A (PKA activity): 9.6152 U/mg
[3]; concentration 1 μM
  A (PKA activity): 2.14E+01 U/mg
[3]; concentration 1.00E+01 μM
  A (PKA activity): 2.50E+01 U/mg
[3]; concentration 1.00E+02 μM
  A (PKA activity): 2.46E+01 U/mg
[3]; concentration 1.00E-01 μM
  A (PKA activity): 1.13E+01 U/mg
[3]; concentration 1.00E-02 μM
  A (PKA activity): 4.087 U/mg
[3]; concentration 1.00E-03 μM
  A (PKA activity): 4.309 U/mg
[3]; concentration 1.00E-04 μM
  A (PKA activity): 4.252 U/mg
[3]; concentration 1.00E-05 μM
  A (PKA activity): 2.8563 U/mg
[3]; concentration 2.50E-01 μM
  A (PKA activity): 1.57E+01 U/mg
[3]; concentration 2.50E-02 μM
  A (PKA activity): 5.477 U/mg
[3]; concentration 5.00E-01 μM
  A (PKA activity): 1.81E+01 U/mg
[3]; concentration 5.00E-02 μM
  A (PKA activity): 9.071 U/mg
